From US6737383B1, “Herbicidal oxadiazolidines” (priority 1999, dated 2004)

Assays:
bedstraw = assay: Test B pre/postemergence bedstraw; type: in vivo, Galium aparine; conditions: Preemergence
In short: (§1)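 Herbicidal effect was estimated by eye on a ten-point control scale after plants spent twelve to sixteen days in a greenhouse following soil or foliar treatment. Foliar sprays targeted plants at one to four leaves; all doses were formulated in a non-phytotoxic solvent with surfactant.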

blackgrass = assay: Test B pre/postemergence blackgrass; type: in vivo, Alopecurus myosuroides
In short: as §1

surinam grass = assay: Test B pre/postemergence surinam grass; type: in vivo, Brachiaria decumbens
In short: as §1

cocklebur = assay: Test B pre/postemergence cocklebur; type: in vivo, Xanthium strumarium
In short: as §1

corn = assay: Test B pre/postemergence corn; type: in vivo, Zea mays
In short: as §1

crabgrass = assay: Test B pre/postemergence crabgrass; type: in vivo, Digitaria sanguinalis
In short: as §1

giant foxtail = assay: Test B pre/postemergence giant foxtail; type: in vivo, Setaria faberii
In short: as §1

morningglory = assay: Test B pre/postemergence morningglory; type: in vivo, Ipomoea hederacea
In short: as §1

pigweed = assay: Test B pre/postemergence pigweed; type: in vivo, Amaranthus retroflexus
In short: as §1

rape = assay: Test B pre/postemergence rape; type: in vivo, Brassica napus
In short: as §1

soybean = assay: Test B pre/postemergence soybean; type: in vivo, Glycine max
In short: as §1

sugar beet = assay: Test B pre/postemergence sugar beet; type: in vivo, Beta vulgaris
In short: as §1

velvetleaf = assay: Test B pre/postemergence velvetleaf; type: in vivo, Abutilon theophrasti
In short: as §1

wheat = assay: Test B pre/postemergence wheat; type: in vivo, Triticum aestivum
In short: as §1

wild oat = assay: Test B pre/postemergence wild oat; type: in vivo, Avena fatua
In short: as §1

purple nutsedge = assay: Test B pre/postemergence purple nutsedge; type: in vivo, Cyperus rotundus
In short: as §1

[1] = Postemergence, Rate 125 g/ha, scale 0 to 10, 0 is no effect, 10 is complete control
[2] = Postemergence, Rate 500 g/ha, scale 0 to 10, 0 is no effect, 10 is complete control
[3] = Preemergence, Rate 62 g/ha, scale 0 to 10 (0 no effect, 10 complete control)
[4] = Preemergence, Rate 125 g/ha, scale 0 to 10, 0 is no effect, 10 is complete control
[5] = Preemergence, Rate 500 g/ha, scale of 0 to 10 where 0 is no effect and 10 is complete control
[6] = Postemergence, Rate 62 g/ha, scale of 0 to 10, 0 is no effect, 10 is complete control
[7] = Rate 250 g/ha, Postemergence, scale of 0 to 10 where 0 is no effect and 10 is complete control

COCn1c(=O)on(C(=O)N(c2ccc(Cl)cc2)C(C)C)c1=O [Compound 533]
0: Bedstraw plant response rating (bedstraw; Rate 62 g/ha, scale 0 to 10 (0 no effect, 10 complete control)) | Bedstraw plant response rating (bedstraw; Rate 125 g/ha, scale 0 to 10, 0 is no effect, 10 is complete control) | Bedstraw plant response rating (0 to 10 scale) (bedstraw; Rate 250 g/ha) | Bedstraw plant response rating (bedstraw; Rate 500 g/ha, scale of 0 to 10 where 0 is no effect and 10 is complete control) | B. signalgrass plant response rating (surinam grass; [6]) | B. signalgrass plant response rating (surinam grass; [1]) | Cocklebur plant response rating (cocklebur; [3]) | Cocklebur plant response rating (cocklebur; [4]) | Cocklebur plant response rating (0 to 10 scale) (cocklebur; Preemergence, Rate 250 g/ha) | Cocklebur plant response rating (cocklebur; [5]) | Corn plant response rating (corn; [6]) | Corn plant response rating (corn; [1]) | Plant response rating, Corn (corn; [2]) | Corn plant response rating (corn; [3]) | Corn plant response rating (corn; [4]) | Corn plant response rating (0 to 10 scale) (corn; Preemergence, Rate 250 g/ha) | Plant response rating, Corn (corn; [7]) | Morningglory plant response rating (morningglory; [3]) | Morningglory plant response rating (morningglory; [4]) | Morningglory plant response rating (0 to 10 scale) (morningglory; Preemergence, Rate 250 g/ha) | Morningglory plant response rating (morningglory; [5]) | Rape plant response rating (rape; [6]) | Rape plant response rating (rape; [1]) | Rape plant response rating (rape; [3]) | Rape plant response rating (rape; [4]) | Soybean plant response rating (soybean; [3]) | Soybean plant response rating (soybean; [4]) | Soybean plant response rating (0 to 10 scale) (soybean; Preemergence, Rate 250 g/ha) | Soybean plant response rating (soybean; [5]) | Sugarbeets plant response rating (sugar beet; [6]) | Sugarbeets plant response rating (sugar beet; [1]) | Velvetleaf plant response rating (velvetleaf; [6]) | Velvetleaf plant response rating (velvetleaf; [3]) | Velvetleaf plant response rating (velvetleaf; [4]) | Wheat plant response rating (wheat; [6]) | Wheat plant response rating (wheat; [1]) | Wheat plant response rating (wheat; [3]) | Wheat plant response rating (wheat; [4]) | Wheat plant response rating (0 to 10 scale) (wheat; Preemergence, Rate 250 g/ha) | Wheat plant response rating (wheat; [5]) | Wild oats plant response rating (wild oat; [6]) | Wild oats plant response rating (wild oat; [1]) | Plant response rating, Wild oats (wild oat; [2]) | Wild oats plant response rating (wild oat; [3]) | Wild oats plant response rating (wild oat; [4]) | Nutsedge plant response rating (purple nutsedge; [6]) | Nutsedge plant response rating (purple nutsedge; [1]) | Plant response rating, Nutsedge (purple nutsedge; [2]) | Nutsedge plant response rating (purple nutsedge; [3]) | Nutsedge plant response rating (purple nutsedge; [4]) | Nutsedge plant response rating (purple nutsedge; [5]) | Plant response rating, Nutsedge (purple nutsedge; [7])
4: Blackgrass plant response rating (blackgrass; [3]) | Plant response rating, B. signalgrass (surinam grass; [2]) | Plant response rating, Cocklebur (cocklebur; [2]) | Morningglory plant response rating (morningglory; [6]) | Morningglory plant response rating (morningglory; [1]) | Plant response rating, Rape (rape; [2]) | Soybean plant response rating (soybean; [6]) | Soybean plant response rating (soybean; [1]) | Plant response rating, Soybean (soybean; [2]) | Plant response rating, Soybean (soybean; [7]) | Plant response rating, Sugarbeets (sugar beet; [2]) | Velvetleaf plant response rating (velvetleaf; [1]) | Plant response rating, Velvetleaf (velvetleaf; [7])
3: B. signalgrass plant response rating (surinam grass; [4]) | Crabgrass plant response rating (crabgrass; [6]) | Sugarbeets plant response rating (sugar beet; [3])
6: Corn plant response rating (corn; [5])
2: Blackgrass plant response rating (blackgrass; [1]) | B. signalgrass plant response rating (surinam grass; [3]) | Cocklebur plant response rating (cocklebur; [6]) | Cocklebur plant response rating (cocklebur; [1]) | Plant response rating, Cocklebur (cocklebur; [7]) | Plant response rating, Wheat (wheat; [2])
5: Sugarbeets plant response rating (sugar beet; [4]) | Velvetleaf plant response rating (0 to 10 scale) (velvetleaf; Preemergence, Rate 250 g/ha) | Velvetleaf plant response rating (velvetleaf; [5])
10: Crabgrass plant response rating (crabgrass; [4]) | Crabgrass plant response rating (0 to 10 scale) (crabgrass; Preemergence, Rate 250 g/ha) | Crabgrass plant response rating (crabgrass; [5]) | Giant foxtail plant response rating (giant foxtail; [4]) | Giant foxtail plant response rating (0 to 10 scale) (giant foxtail; Preemergence, Rate 250 g/ha) | Giant foxtail plant response rating (giant foxtail; [5])
9: Blackgrass plant response rating (0 to 10 scale) (blackgrass; Preemergence, Rate 250 g/ha) | Blackgrass plant response rating (blackgrass; [5]) | B. signalgrass plant response rating (0 to 10 scale, 0 is no effect, 10 is complete control) (surinam grass; Preemergence, Rate 250 g/ha) | B. signalgrass plant response rating (surinam grass; [5]) | Plant response rating, Crabgrass (crabgrass; [2]) | Crabgrass plant response rating (crabgrass; [3]) | Plant response rating, Crabgrass (crabgrass; [7]) | Plant response rating, Giant foxtail (giant foxtail; [2]) | Giant foxtail plant response rating (giant foxtail; [3]) | Plant response rating, Giant foxtail (giant foxtail; [7]) | Redroot pigweed plant response rating (pigweed; [6]) | Redroot pigweed plant response rating (pigweed; [1]) | Plant response rating, Redroot pigweed (pigweed; [2]) | Wild oats plant response rating (0 to 10 scale) (wild oat; Preemergence, Rate 250 g/ha) | Wild oats plant response rating (wild oat; [5])
8: Blackgrass plant response rating (blackgrass; [4]) | Crabgrass plant response rating (crabgrass; [1]) | Giant foxtail plant response rating (giant foxtail; [6]) | Giant foxtail plant response rating (giant foxtail; [1]) | Redroot pigweed plant response rating (pigweed; [3]) | Redroot pigweed plant response rating (pigweed; [4]) | Redroot pigweed plant response rating (0 to 10 scale) (pigweed; Preemergence, Rate 250 g/ha) | Redroot pigweed plant response rating (pigweed; [5]) | Plant response rating, Velvetleaf (velvetleaf; [2])
7: Plant response rating, Blackgrass (blackgrass; [2]) | Plant response rating, Morningglory (morningglory; [2]) | Plant response rating, Morningglory (morningglory; [7]) | Rape plant response rating (0 to 10 scale) (rape; Preemergence, Rate 250 g/ha) | Rape plant response rating (rape; [5]) | Sugarbeets plant response rating (0 to 10 scale) (sugar beet; Preemergence, Rate 250 g/ha) | Sugarbeets plant response rating (sugar beet; [5])
